Measured values: PMC5355060, “Preclinical pharmacodynamic evaluation of drug candidate SKLB-178 in the treatment of non-small cell lung cancer” (Oncotarget, 2017)

What was measured:
Type in all cases: biochemical
PDGFRα = target: T1, PDGFRα (Homo sapiens, UniProt P16234); assay: […] radiolabeled kinase assay, single dose […]
T1 construct: gene PDGFRA

EGFR = EGFR (Homo sapiens, UniProt P00533); assay: […] radiolabeled kinase assay (Millipore KinaseProfiler)
Src = Src (Homo sapiens, UniProt P12931); assay: as above
Sequence of Src (P12931 2-536): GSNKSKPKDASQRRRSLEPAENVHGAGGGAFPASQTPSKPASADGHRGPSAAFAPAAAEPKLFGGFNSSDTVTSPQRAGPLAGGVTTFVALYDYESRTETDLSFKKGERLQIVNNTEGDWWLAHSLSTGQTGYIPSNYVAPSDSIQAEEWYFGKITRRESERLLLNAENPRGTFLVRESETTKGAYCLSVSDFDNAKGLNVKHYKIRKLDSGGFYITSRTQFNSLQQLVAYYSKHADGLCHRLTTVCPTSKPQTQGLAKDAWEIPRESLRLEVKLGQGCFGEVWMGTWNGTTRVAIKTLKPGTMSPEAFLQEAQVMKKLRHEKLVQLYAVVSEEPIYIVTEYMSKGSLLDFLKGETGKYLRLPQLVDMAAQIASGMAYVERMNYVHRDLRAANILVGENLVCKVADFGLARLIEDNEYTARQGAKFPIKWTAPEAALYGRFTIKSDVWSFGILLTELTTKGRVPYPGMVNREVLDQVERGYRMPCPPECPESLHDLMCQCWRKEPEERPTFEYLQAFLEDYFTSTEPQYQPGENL

ErbB4 = ErbB4 (Homo sapiens, UniProt Q15303); assay: […] radiolabeled kinase assay, single dose […]
Sequence of ErbB4 (Q15303 26-1308): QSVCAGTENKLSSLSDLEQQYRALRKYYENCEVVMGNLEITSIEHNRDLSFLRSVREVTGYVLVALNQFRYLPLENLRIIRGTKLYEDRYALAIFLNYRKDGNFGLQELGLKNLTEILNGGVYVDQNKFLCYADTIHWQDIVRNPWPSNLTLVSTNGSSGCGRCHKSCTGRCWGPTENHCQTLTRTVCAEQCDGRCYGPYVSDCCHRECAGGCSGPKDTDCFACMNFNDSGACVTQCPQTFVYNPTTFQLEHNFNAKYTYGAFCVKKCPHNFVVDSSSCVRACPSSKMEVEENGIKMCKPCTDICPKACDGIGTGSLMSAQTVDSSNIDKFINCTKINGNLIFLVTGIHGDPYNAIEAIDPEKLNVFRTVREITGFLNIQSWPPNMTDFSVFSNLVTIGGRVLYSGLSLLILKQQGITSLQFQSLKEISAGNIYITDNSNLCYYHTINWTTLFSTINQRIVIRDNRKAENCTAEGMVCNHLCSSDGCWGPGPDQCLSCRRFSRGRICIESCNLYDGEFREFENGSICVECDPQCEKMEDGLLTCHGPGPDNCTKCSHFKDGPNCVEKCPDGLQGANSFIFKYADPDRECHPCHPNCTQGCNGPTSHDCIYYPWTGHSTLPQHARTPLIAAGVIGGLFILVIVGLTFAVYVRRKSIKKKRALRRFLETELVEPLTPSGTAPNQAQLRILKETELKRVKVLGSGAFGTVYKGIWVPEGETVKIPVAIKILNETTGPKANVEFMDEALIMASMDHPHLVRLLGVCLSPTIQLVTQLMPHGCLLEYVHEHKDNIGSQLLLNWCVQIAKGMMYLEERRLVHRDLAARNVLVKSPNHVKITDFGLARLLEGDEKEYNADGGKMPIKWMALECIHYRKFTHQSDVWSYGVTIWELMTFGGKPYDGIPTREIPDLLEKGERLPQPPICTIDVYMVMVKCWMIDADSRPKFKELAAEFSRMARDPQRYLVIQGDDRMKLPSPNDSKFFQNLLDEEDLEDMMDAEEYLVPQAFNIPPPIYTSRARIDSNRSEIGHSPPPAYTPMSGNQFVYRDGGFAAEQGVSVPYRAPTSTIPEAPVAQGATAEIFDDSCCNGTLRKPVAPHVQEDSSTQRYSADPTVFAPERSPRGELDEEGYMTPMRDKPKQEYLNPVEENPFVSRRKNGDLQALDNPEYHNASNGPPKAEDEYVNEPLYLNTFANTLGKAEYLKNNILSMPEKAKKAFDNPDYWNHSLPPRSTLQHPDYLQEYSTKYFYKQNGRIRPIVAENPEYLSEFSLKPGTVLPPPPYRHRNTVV

MET = MET (Homo sapiens, UniProt P08581); assay: […] radiolabeled kinase assay, single dose […]
KDR (VEGFR2) = KDR (VEGFR2) (Homo sapiens, UniProt P35968); assay: […] radiolabeled kinase assay (Millipore KinaseProfiler)
Sequence of KDR (VEGFR2) (P35968 20-1356): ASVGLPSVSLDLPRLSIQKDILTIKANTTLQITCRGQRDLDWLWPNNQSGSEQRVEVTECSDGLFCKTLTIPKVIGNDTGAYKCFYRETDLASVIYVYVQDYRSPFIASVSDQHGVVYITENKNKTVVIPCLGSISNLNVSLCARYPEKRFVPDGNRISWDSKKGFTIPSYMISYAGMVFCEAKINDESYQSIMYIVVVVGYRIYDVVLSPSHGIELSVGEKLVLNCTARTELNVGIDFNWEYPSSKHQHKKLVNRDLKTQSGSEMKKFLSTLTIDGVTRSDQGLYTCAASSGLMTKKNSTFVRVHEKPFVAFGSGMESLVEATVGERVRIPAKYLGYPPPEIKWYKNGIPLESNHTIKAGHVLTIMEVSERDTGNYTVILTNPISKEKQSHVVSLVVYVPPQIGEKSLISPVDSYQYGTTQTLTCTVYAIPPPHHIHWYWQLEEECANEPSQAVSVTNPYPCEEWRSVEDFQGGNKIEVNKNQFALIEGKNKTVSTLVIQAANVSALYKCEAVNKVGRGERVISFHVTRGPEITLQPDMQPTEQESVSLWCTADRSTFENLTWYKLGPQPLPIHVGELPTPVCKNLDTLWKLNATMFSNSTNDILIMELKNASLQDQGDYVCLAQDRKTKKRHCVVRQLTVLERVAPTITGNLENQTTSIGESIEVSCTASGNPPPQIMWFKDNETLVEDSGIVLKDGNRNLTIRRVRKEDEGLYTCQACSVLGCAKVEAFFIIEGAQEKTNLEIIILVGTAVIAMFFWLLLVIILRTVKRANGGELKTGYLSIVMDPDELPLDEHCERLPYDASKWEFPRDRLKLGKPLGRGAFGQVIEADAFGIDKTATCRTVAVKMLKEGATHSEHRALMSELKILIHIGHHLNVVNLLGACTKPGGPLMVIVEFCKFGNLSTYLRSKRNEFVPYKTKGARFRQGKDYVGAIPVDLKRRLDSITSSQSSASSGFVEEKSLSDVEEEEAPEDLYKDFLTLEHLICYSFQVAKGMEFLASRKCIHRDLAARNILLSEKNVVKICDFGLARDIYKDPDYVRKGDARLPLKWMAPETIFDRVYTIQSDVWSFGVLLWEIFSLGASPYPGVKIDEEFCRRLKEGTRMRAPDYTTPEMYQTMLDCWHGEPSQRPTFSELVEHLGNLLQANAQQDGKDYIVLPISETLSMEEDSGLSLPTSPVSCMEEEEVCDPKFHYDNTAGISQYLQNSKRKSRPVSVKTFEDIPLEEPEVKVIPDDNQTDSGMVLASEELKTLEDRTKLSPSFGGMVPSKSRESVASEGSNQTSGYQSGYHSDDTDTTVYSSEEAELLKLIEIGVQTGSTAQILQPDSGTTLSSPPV

EGFR L858R/T790M = EGFR L858R/T790M (Homo sapiens, UniProt P00533, T790M/L858R); assay: as above
EGFR L858R = EGFR L858R (Homo sapiens, UniProt P00533, L858R); assay: as above
Sequence of EGFR L858R (P00533 668-1210 L858R limits assumed): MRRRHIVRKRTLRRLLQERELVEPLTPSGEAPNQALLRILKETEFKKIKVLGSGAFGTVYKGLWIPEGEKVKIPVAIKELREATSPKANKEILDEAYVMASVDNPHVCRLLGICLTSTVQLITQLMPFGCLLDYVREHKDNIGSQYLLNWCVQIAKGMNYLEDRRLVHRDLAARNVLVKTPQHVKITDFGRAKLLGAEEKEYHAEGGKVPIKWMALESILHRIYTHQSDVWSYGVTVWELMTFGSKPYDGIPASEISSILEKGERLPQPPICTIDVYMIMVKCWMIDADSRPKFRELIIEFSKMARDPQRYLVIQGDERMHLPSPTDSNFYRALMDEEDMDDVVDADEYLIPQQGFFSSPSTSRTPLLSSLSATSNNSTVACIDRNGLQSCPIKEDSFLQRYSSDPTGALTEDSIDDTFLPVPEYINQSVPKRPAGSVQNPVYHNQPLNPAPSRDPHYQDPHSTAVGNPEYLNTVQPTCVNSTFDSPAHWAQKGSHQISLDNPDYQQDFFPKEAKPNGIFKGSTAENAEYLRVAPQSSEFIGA

Sequence of EGFR (P00533 25-1210): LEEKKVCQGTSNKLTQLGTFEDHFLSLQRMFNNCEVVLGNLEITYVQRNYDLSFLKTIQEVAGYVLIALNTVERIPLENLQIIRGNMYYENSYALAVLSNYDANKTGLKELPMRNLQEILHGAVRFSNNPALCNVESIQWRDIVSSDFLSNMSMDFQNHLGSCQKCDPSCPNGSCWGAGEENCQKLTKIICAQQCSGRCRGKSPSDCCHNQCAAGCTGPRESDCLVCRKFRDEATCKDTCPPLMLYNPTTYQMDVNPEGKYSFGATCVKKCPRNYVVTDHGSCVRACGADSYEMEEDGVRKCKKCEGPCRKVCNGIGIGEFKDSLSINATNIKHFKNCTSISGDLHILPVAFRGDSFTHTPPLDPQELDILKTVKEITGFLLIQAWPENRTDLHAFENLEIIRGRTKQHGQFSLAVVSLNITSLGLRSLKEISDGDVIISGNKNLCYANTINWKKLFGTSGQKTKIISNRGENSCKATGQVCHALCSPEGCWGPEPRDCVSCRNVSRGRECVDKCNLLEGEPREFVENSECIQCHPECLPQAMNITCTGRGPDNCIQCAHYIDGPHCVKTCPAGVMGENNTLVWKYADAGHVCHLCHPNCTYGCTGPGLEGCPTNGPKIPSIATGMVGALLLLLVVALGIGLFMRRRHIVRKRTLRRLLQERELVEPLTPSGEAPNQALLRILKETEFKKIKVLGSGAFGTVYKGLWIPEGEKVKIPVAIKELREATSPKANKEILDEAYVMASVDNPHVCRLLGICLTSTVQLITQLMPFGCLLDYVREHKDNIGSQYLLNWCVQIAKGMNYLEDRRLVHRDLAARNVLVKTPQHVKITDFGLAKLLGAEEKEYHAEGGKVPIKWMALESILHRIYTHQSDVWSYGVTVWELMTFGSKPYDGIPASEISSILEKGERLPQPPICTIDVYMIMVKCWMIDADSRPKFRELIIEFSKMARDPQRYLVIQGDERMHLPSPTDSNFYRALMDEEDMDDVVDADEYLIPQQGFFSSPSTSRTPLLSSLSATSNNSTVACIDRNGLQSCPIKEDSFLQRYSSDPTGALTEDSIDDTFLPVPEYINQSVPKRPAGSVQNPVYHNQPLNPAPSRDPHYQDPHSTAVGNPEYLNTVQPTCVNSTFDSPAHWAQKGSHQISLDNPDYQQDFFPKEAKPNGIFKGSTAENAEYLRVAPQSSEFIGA

CN1CCN(c2ccc(Nc3ncc4nc(Nc5ccc(Br)cc5)n(C5CCCC5)c4n3)cc2)CC1 [SKLB-178]
inhibition at 1 µM (PDGFRα): 58% | 33P radiolabeled kinase assay (Millipore KinaseProfiler) (EGFR): completely inhibited at 10 μM or 1 μM | 33P radiolabeled kinase assay (Millipore KinaseProfiler) (Src): completely inhibited at 10 μM or 1 μM | inhibition at 1 µM (ErbB4): 100% | inhibition at 10 µM (MET): 88% | 33P radiolabeled kinase assay (Millipore KinaseProfiler) (KDR (VEGFR2)): completely inhibited at 10 μM or 1 μM | 33P radiolabeled kinase assay (Millipore KinaseProfiler) (EGFR L858R/T790M): completely inhibited at 10 μM or 1 μM | 33P radiolabeled kinase assay (Millipore KinaseProfiler) (EGFR L858R): completely inhibited at 10 μM or 1 μM
